Here are results for 26 compounds from ChEMBL document CHEMBL3102850, “Microwave assisted synthesis of naphthopyrans catalysed by silica supported fluoroboric acid as a new class of non purine xanthine oxidase inhibitors” (Bioorg Med Chem Lett, 2014).

Test [1] addresses T1, Xanthine dehydrogenase/oxidase (Bos taurus, UniProt P80457). As to the kind of experiment: Inhibition of bovine milk xanthine oxidase using xanthine as substrate assessed as decrease in uric acid formation at 50 uM preincubated for 5 mins. As to conditions: cattle.
Test [2] has as its target T1, Xanthine dehydrogenase/oxidase. As to the kind of experiment: Inhibition of bovine milk xanthine oxidase using xanthine as substrate assessed as decrease in uric acid formation preincubated for 5 mins.

T1 sequence (P80457 whole entry): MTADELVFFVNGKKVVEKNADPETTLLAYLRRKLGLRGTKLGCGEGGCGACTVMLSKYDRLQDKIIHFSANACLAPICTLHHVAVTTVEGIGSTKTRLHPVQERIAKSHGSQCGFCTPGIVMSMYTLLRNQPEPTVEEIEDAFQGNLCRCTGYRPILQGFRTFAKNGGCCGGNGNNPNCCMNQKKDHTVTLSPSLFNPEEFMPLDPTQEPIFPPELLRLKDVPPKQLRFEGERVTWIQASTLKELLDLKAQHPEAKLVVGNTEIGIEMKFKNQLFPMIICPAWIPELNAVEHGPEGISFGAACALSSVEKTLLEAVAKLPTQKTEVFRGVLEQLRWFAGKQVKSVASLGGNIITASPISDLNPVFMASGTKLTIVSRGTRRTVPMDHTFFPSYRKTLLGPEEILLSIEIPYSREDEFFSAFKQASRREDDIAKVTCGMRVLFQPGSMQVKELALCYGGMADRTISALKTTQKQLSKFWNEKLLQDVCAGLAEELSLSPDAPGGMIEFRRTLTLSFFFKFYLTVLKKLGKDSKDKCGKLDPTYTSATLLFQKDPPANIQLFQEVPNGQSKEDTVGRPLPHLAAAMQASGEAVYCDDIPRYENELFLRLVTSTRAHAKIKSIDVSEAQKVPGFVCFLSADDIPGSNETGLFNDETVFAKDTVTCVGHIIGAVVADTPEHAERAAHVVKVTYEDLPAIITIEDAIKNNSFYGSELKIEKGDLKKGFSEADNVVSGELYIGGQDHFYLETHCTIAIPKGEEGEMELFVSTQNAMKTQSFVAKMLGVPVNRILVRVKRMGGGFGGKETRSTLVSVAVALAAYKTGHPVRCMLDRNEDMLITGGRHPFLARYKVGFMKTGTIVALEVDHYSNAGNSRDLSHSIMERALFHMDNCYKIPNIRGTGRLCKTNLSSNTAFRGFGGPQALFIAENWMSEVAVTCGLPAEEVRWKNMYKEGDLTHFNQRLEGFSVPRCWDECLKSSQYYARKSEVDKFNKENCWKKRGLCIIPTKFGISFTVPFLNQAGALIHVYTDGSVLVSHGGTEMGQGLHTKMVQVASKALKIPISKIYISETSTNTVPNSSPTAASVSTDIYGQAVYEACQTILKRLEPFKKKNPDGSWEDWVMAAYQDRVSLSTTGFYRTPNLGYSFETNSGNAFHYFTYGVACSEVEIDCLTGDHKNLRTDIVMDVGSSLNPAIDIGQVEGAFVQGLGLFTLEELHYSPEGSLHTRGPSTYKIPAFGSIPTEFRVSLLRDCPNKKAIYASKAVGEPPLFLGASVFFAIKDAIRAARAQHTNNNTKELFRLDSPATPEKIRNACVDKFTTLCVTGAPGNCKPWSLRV

Turning to `COC(=O)C1=C(C)Oc2ccc3ccccc3c2C1c1cccc(Oc2ccccc2)c1` (stereo unspecified), in test [1], the inhibition (usually how much of the control response was suppressed) at 50 µM is 59.6%.

For the compound `COC(=O)C1=C(C)Oc2ccc3ccccc3c2C1`, the inhibition at 50 µM in test [1] came out at 32%.

Consider `CCOC(=O)C1=C(C)Oc2ccc3ccccc3c2C1c1ccc(Cl)cc1` (stereo unspecified), for which the inhibition at 50 µM in test [1] was 20.9%.

As to `CCOC(=O)C1=C(C)Oc2ccc3ccccc3c2C1c1cccs1` (stereo unspecified), in test [2], the IC50 (commonly the concentration that gives 50% inhibition) was 11.4 µM. In addition, the inhibition at 50 µM in test [1] is 89%.

Take `CCOC(=O)C1=C(C)Oc2ccc3ccccc3c2C1c1ccc(OC)cc1` (stereo unspecified): the inhibition at 50 µM in test [1] is 56.5%.

For the compound `CCOC(=O)C1=C(C)Oc2ccc3ccccc3c2C1c1ccc(OC)c(OC)c1` (stereo unspecified), in test [1], the inhibition at 50 µM was 62.3%.

Take `COC(=O)C1=C(C)Oc2ccc3ccccc3c2C1c1ccco1` (stereo unspecified): in test [2], the IC50 is 10 µM. Further, the inhibition at 50 µM in test [1] came to 92.5%.

For `COC(=O)C1=C(C)Oc2ccc3ccccc3c2C1c1ccc(Cl)cc1` (stereo unspecified), the inhibition at 50 µM in test [1] worked out at 23.9%.

Turning to `CCOC(=O)C1=C(C)Oc2ccc3ccccc3c2C1/C=C/c1ccccc1` (stereo unspecified), the inhibition at 50 µM in test [1] was determined as 11.3%.

With `COC(=O)C1=C(C)Oc2ccc3ccccc3c2C1c1ccc([N+](=O)[O-])cc1` (stereo unspecified), the inhibition at 50 µM in test [1] is 25%.

On to `COC(=O)C1=C(C)Oc2ccc3ccccc3c2C1c1ccc(OC)c(OC)c1` (stereo unspecified), for which the half-maximal inhibitory concentration (IC50) in test [2] came out at 17 µM. In addition, the inhibition at 50 µM in test [1] came to 78.2%.

Regarding `CCOC(=O)C1=C(C)Oc2ccc3ccccc3c2C1c1ccc([N+](=O)[O-])cc1` (stereo unspecified), the inhibition at 50 µM in test [1] came out at 21.4%.

On to `COC(=O)C1=C(C)Oc2ccc3ccccc3c2C1c1ccccc1OC` (stereo unspecified), for which the inhibition at 50 µM in test [1] worked out at 58.8%.

`COC(=O)C1=C(C)Oc2ccc3ccccc3c2C1c1ccc(O)cc1` (stereo unspecified): the IC50 in test [2] was determined as 24 µM. In test [1], the inhibition at 50 µM was determined as 72.4%.

Consider `CCOC(=O)C1=C(C)Oc2ccc3ccccc3c2C1c1ccccc1` (stereo unspecified), for which, in test [2], the IC50 stood at 44.4 µM. For the same compound, in test [1], the inhibition at 50 µM came to 65.2%.

For the compound `COC(=O)C1=C(C)Oc2ccc3ccccc3c2C1c1ccc[nH]1` (stereo unspecified), the IC50 in test [2] amounted to 6.23 µM. In addition, the inhibition at 50 µM in test [1] was determined as 94.5%.

For the compound `COC(=O)C1=C(C)Oc2ccc3ccccc3c2C1c1sccc1C` (stereo unspecified), the 50% inhibitory concentration (IC50) in test [2] was determined as 7.31 µM. In addition, the inhibition at 50 µM in test [1] is 93.3%.

Turning to `CCCCCC1C(C(=O)OC)=C(C)Oc2ccc3ccccc3c21` (stereo unspecified), in test [1], the inhibition at 50 µM came to 58.9%.

Take `COC(=O)C1=C(C)Oc2ccc3ccccc3c2C1c1ccc(OC)cc1` (stereo unspecified): the IC50 in test [2] was determined as 36.5 µM. Besides, in test [1], the inhibition at 50 µM is 68.7%.

Take `COC(=O)C1=C(C)Oc2ccc3ccccc3c2C1c1cc(OC)c(OC)c(OC)c1` (stereo unspecified): the inhibition at 50 µM in test [1] came out at 50%.

`CCOC(=O)C1=C(C)Oc2ccc3ccccc3c2C1c1ccco1` (stereo unspecified): in test [2], the IC50 was determined as 13.2 µM. In test [1], the inhibition at 50 µM is 88.6%.

With `COC(=O)C1=C(C)Oc2ccc3ccccc3c2C1c1ccc(O)c(OC)c1` (stereo unspecified), the inhibition at 50 µM in test [1] was found to be 67.5%.

For the compound `CCOC(=O)C1=C(C)Oc2ccc3ccccc3c2C1c1cccc(Oc2ccccc2)c1` (stereo unspecified), the inhibition at 50 µM in test [1] came to 50.5%.

Regarding `COC(=O)C1=C(C)Oc2ccc3ccccc3c2C1c1cccs1` (stereo unspecified), the IC50 in test [2] was 4 µM. Also, the inhibition at 50 µM in test [1] was found to be 96.6%.

Consider `CCOC(=O)C1=C(C)Oc2ccc3ccccc3c2C1c1ccc(OC)c(O)c1` (stereo unspecified), for which the inhibition at 50 µM in test [1] is 64.7%.

For `COC(=O)C1=C(C)Oc2ccc3ccccc3c2C1c1ccc(OC)c(O)c1` (stereo unspecified), the inhibition at 50 µM in test [1] stood at 69.3%.
